Numbered stars: 1 amine (or outer) side, 2 acyl side, 3 side chain; on linkers, the order of the positions; unused ones are H or OH. Bridge positions count the residues as written; N and C are the ends. Square brackets hold non-standard residues; d marks the D form. Peptide text beside a SMILES is read from it. * marks the point of attachment. hPhe(3-Cl-4-CF3) = N[C@@H](CCc1ccc(C(F)(F)F)c(Cl)c1)C(=O)O; hPhe(3-F,4-CF3) = N[C@@H](CCc1ccc(C(F)(F)F)c(F)c1)C(=O)O; NEtPhe(4-CF3) = CCN[C@@H](Cc1ccc(C(F)(F)F)cc1)C(=O)O; Phe(4-CHF2) = N[C@@H](Cc1ccc(C(F)F)cc1)C(=O)O; NEtPhe(4-Me) = CCN[C@@H](Cc1ccc(C)cc1)C(=O)O; NMePhe(4-Cl) = CN[C@@H](Cc1ccc(Cl)cc1)C(=O)O; NMePhe(4-Me) = CN[C@@H](Cc1ccc(C)cc1)C(=O)O; NMedβ3hAla = C[C@H](CC(=O)[*:2])N(C)[*:1]; NMeGly(cPent) = CN[C@H](C(=O)O)C1CCCC1; Phe(3-I) = N[C@@H](Cc1cccc(I)c1)C(=O)O; NMeCha = CN[C@@H](CC1CCCCC1)C(=O)O; Hyp = O=C(O)[C@@H]1C[C@@H](O)CN1; NMeChg = CN[C@H](C(=O)O)C1CCCCC1; NMeI = CC[C@H](C)[C@H](NC)C(=O)O; NMeT = CN[C@H](C(=O)O)[C@@H](C)O; NMeE = CN[C@@H](CCC(=O)O)C(=O)O; NMeD = CN[C@@H](CC(=O)O)C(=O)O; NMeL = CN[C@@H](CC(C)C)C(=O)O; NMeV = CN[C@H](C(=O)O)C(C)C; d(β3hA) = C[C@@H](N)CC(=O)O; NMeS = CN[C@@H](CO)C(=O)O; dPip = O=C(O)[C@H]1CCCCN1; Morpholide = C1CN(*)CCO1; NMeA = CN[C@@H](C)C(=O)O; NMeAib = CNC(C)(C)C(=O)O; Nle = CCCC[C@H](N)C(=O)O; Piperidide = C1CCN(*)CC1; Pyrrolidide = C1CCN(*)C1; Ac5c = NC1(C(=O)O)CCCC1; Aze = O=C(O)[C@@H]1CCN1; Cyclobutyl = C1CC(*)C1; NBuGly = CCCCNCC(=O)O; Sar = CNCC(=O)O; Propyl = CCC*
Legend:
[1] = target: protein-protein interaction between Kras and SOS1 (biotin-tagged human Kras loaded with GDP, His-tagged human SOS1) (Homo sapiens (Human), UniProt P01116, G12D); assay: Protein-protein interaction inhibition between Kras and SOS1 (KrasG12D-SOS PPI) using AlphaScreen; type: biochemical; settings: AlphaScreen; biotin-tagged human Kras loaded with GDP, His-tagged human SOS1; read-out: KRAS G12D-SOS PPI IC50;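 note: kras produced in E. coli, Ni-coupled donor beads and streptavidin acceptor beads, excitation 680 nm with emission detected at 520–620 nm via singlet oxygen transfer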
[2] = test system: Human pancreatic cancer cell line AsPC-1 (G12D mutation Kras); assay: AsPC-1 cell growth inhibition (AsPC-1 CGI); type: cell-based; settings: read-out: AsPC-1 cell growth inhibition, 50% growth inhibitory concentration (IC50 value); 96 hours, CellTiter-Glo, values classified in ranges
Description: Test compounds were serially dilated with dimethyl sulfoxide, and 200 nL was then dispensed to a U-bottom 96-well plate using Labcyte Echo. […] The cell suspension was dispensed to a. plate containing a test compound at 100 μL per well and incubated at 37° C. in a 5% carbon dioxide gas incubator. 96 hours later, 80 μL of CellTiter-Glo (Promega) was added to each well and fluorescence was measured.

SMILES | IC50 [1] [µM] | IC50 [2] [µM]
CC[C@H](C)[C@@H]1NC(=O)[C@H](CC(C)C)N(C)C(=O)C[C@@H](C)N(C)C(=O)[C@H]([C@@H](C)CC)NC(=O)C(C)(C)N(C)C(=O)[C@H](CC(C)C)NC(=O)[C@H](CCc2ccc(C(F)(F)F)c(F)c2)NC(=O)CN(C)C(=O)[C@H](Cc2ccc(Cl)cc2)N(C)C(=O)CN(C)C(=O)CN(C)C1=O [Compound 800] (cyclo(I[Sar][Sar][NMePhe(4-Cl)][Sar][hPhe(3-F,4-CF3)]L[NMeAib]I[NMedβ3hAla][NMeL])) | 0.086 | > 0.5
CC[C@H](C)[C@@H]1NC(=O)[C@H](CC(C)C)N(C)C(=O)C[C@@H](C)NC(=O)[C@H](C(C)C)N(C)C(=O)C2(CCCC2)NC(=O)[C@@H]2CCCN2C(=O)[C@H](CCc2ccc(C(F)(F)F)c(Cl)c2)NC(=O)CN(C)C(=O)[C@H](CC2CCCCC2)N(C)C(=O)[C@@H]2CCN2C(=O)[C@H](CCC(=O)NC)N(C)C1=O [Compound 810] (cyclo([Ac5c][NMeV][d(β3hA)][NMeL]I[NMeE](NHMe)[Aze][NMeCha][Sar][hPhe(3-Cl-4-CF3)]P)) | 0.049 | > 0.5
CCO[C@@H]1C[C@H]2C(=O)NC3(CCCC3)C(=O)N(C)[C@@H](C3CCCC3)C(=O)N(C)[C@H](C)CC(=O)N(C)[C@@H](CC(C)C)C(=O)N[C@@H]([C@@H](C)CC)C(=O)N(C)[C@@H](C)C(=O)N3CC[C@H]3C(=O)N(CC)[C@@H](Cc3ccc(C(F)(F)F)cc3)C(=O)N(C)CC(=O)N[C@@H](CCc3ccc(C(F)(F)F)c(Cl)c3)C(=O)N2C1 [Compound 816] (cyclo([Ac5c][NMeGly(cPent)][NMedβ3hAla][NMeL]I[NMeA][Aze][NEtPhe(4-CF3)][Sar][hPhe(3-Cl-4-CF3)][Hyp](Et))) | 0.0039 | ≤ 0.02
CCCC[C@@H]1NC(=O)[C@H](Cc2cccc(I)c2)NC(=O)CN(C)C(=O)[C@H](Cc2ccc(C)cc2)N(C)C(=O)[C@@H]2CCN2C(=O)[C@H](C)N(C)C(=O)[C@H]([C@@H](C)CC)NC(=O)[C@H](CC(C)C)N(C)C(=O)C[C@@H](C(=O)N2CCCCC2)N(C)C(=O)[C@H](CC(C)C)NC(=O)[C@H]2CCCN2C1=O [Compound 822] ([NMeL]I[NMeA][Aze][NMePhe(4-Me)][Sar][Phe(3-I)][Nle][dP]L[NMeD]-Piperidide; lactam N-11) | 0.15 | > 0.5
CC[C@H](C)[C@@H]1NC(=O)[C@H](C)N(C)C(=O)C[C@@H](C(=O)N2CCCCC2)N(C)C(=O)[C@H](C(C)C)N(C)C(=O)C2(CCCC2)NC(=O)[C@@H]2CCCN2C(=O)[C@H](CCc2ccc(C(F)(F)F)c(Cl)c2)NC(=O)[C@H]2CCCCN2C(=O)[C@H](CC2CCCCC2)N(C)C(=O)[C@@H]2CCCN2C(=O)CN(C)C1=O [Compound 823] ([NMeA]I[Sar]P[NMeCha][dPip][hPhe(3-Cl-4-CF3)]P[Ac5c][NMeV][NMeD]-Piperidide; lactam N-11) | 0.016 | > 0.5
CC[C@H](C)[C@@H]1NC(=O)[C@H](CC(C)C)N(C)C(=O)C[C@@H](C(=O)N(C)C)N(C)C(=O)[C@H]([C@@H](C)CC)N(C)C(=O)[C@H](C)NC(=O)[C@@H]2CCCN2C(=O)[C@H](CCc2ccc(C(F)(F)F)c(Cl)c2)NC(=O)CN(C)C(=O)[C@H](Cc2ccc(C)cc2)N(C)C(=O)[C@@H]2CCN2C(=O)[C@H](C)N(C)C1=O [Compound 829] ([NMeL]I[NMeA][Aze][NMePhe(4-Me)][Sar][hPhe(3-Cl-4-CF3)]PA[NMeI][NMeD]-NMe2; lactam N-11) | 0.0023 | > 0.5
CC[C@H](C)[C@@H]1NC(=O)[C@H](CC(C)C)N(C)C(=O)C[C@@H](C(=O)N2CCCCC2)N(C)C(=O)[C@H](C2CCCC2)N(C)C(=O)C2(CCCC2)NC(=O)[C@@H]2CCCN2C(=O)[C@H](CCc2ccc(C(F)(F)F)c(Cl)c2)NC(=O)CN(C)C(=O)[C@H](COC2CCC2)N(C)C(=O)[C@@H]2CCN2C(=O)[C@H](C)N(C)C1=O [Compound 835] ([NMeL]I[NMeA][Aze][NMeS](Cyclobutyl)[Sar][hPhe(3-Cl-4-CF3)]P[Ac5c][NMeGly(cPent)][NMeD]-Piperidide; lactam N-11) | 0.00054 | ≤ 0.02
CCCOC[C@H]1C(=O)N(C)CC(=O)N[C@@H](CCc2ccc(C(F)(F)F)c(Cl)c2)C(=O)N2CCC[C@H]2C(=O)NC2(CCCC2)C(=O)N(C)[C@@H](C2CCCC2)C(=O)N(C)[C@H](C(=O)N2CCCC2)CC(=O)N(C)[C@@H](CC(C)C)C(=O)N[C@@H]([C@@H](C)CC)C(=O)N(C)[C@@H](C)C(=O)N2CC[C@H]2C(=O)N1C [Compound 836] ([NMeL]I[NMeA][Aze][NMeS](Propyl)[Sar][hPhe(3-Cl-4-CF3)]P[Ac5c][NMeGly(cPent)][NMeD]-Pyrrolidide; lactam N-11) | 0.00066 | ≤ 0.02
CC[C@H](C)[C@@H]1NC(=O)[C@H](CC(C)C)N(C)C(=O)C[C@@H](C(=O)N(C)C)N(C)C(=O)[C@H]([C@@H](C)CC)N(C)C(=O)C2(CCCC2)NC(=O)[C@@H]2CCCN2C(=O)[C@H](CCc2ccc(C(F)(F)F)c(Cl)c2)NC(=O)CN(C)C(=O)[C@H](Cc2ccc(C)cc2)N(C)C(=O)[C@@H]2CCN2C(=O)[C@H](C)NC1=O [Compound 840] ([NMeL]IA[Aze][NMePhe(4-Me)][Sar][hPhe(3-Cl-4-CF3)]P[Ac5c][NMeI][NMeD]-NMe2; lactam N-11) | 0.0012 | ≤ 0.02
CC[C@H](C)[C@@H]1NC(=O)[C@H](C)N(C)C(=O)C[C@@H](C)N(C)C(=O)[C@H](CC(C)C)NC(=O)C(C)(C)N(C)C(=O)[C@H](CC(C)C)NC(=O)[C@H](CCc2ccc(C(F)(F)F)c(F)c2)NC(=O)CN(C)C(=O)[C@H](CC2CCCCC2)N(C)C(=O)CN(C)C(=O)CN(C)C1=O [Compound 842] (cyclo(I[Sar][Sar][NMeCha][Sar][hPhe(3-F,4-CF3)]L[NMeAib]L[NMedβ3hAla][NMeA])) | 0.043 | > 0.5
CCCCN1CC(=O)NC2(CCCC2)C(=O)N(C)[C@@H](C2CCCCC2)C(=O)N(C)[C@H](C(=O)N2CCCCC2)CC(=O)N(C)[C@@H](CC(C)C)C(=O)N[C@@H]([C@@H](C)CC)C(=O)N(C)CC(=O)N(C)CC(=O)N(C)[C@@H](CC2CCCCC2)C(=O)N(C)CC(=O)N[C@@H](CCc2ccc(C(F)(F)F)c(Cl)c2)C1=O [Compound 848] ([NMeL]I[Sar][Sar][NMeCha][Sar][hPhe(3-Cl-4-CF3)][NBuGly][Ac5c][NMeChg][NMeD]-Piperidide; lactam N-11) | 0.016 | > 0.5
CC[C@H](C)[C@@H]1NC(=O)[C@H](CC(C)C)N(C)C(=O)C[C@@H](C)N(C)C(=O)[C@H](CC(C)C)NC(=O)C(C)(C)N(C)C(=O)[C@H](Cc2ccc(C(F)F)cc2)NC(=O)[C@H](CCc2ccc(C(F)(F)F)c(F)c2)NC(=O)CN(C)C(=O)[C@H](CC2CCCCC2)N(C)C(=O)CN(C)C(=O)CN(C)C1=O [Compound 858] (cyclo(I[Sar][Sar][NMeCha][Sar][hPhe(3-F,4-CF3)][Phe(4-CHF2)][NMeAib]L[NMedβ3hAla][NMeL])) | 0.33 | > 0.5
CC[C@H](C)[C@@H]1NC(=O)[C@H](CC(C)C)N(C)C(=O)C[C@@H](C(=O)N2CCCCC2)N(C)C(=O)[C@H](C(C)C)N(C)C(=O)C2(CCCC2)NC(=O)[C@@H]2CCCN2C(=O)[C@H](CCc2ccc(C(F)(F)F)c(Cl)c2)NC(=O)CN(C)C(=O)[C@H]([C@@H](C)O)N(C)C(=O)[C@@H]2CCN2C(=O)[C@H](C)N(C)C1=O [Compound 862] ([NMeL]I[NMeA][Aze][NMeT][Sar][hPhe(3-Cl-4-CF3)]P[Ac5c][NMeV][NMeD]-Piperidide; lactam N-11) | 0.0027 | > 0.5
CC[C@H](C)[C@@H]1NC(=O)[C@H](CC(C)C)N(C)C(=O)C[C@@H](C(=O)N(C)C)N(C)C(=O)[C@H]([C@@H](C)CC)N(C)C(=O)C2(CCCC2)NC(=O)[C@@H]2CCCN2C(=O)[C@H](CCc2ccc(C(F)(F)F)c(Cl)c2)NC(=O)CN(C)C(=O)[C@H](Cc2ccc(C)cc2)N(CC)C(=O)[C@@H]2CCN2C(=O)[C@H](C)N(C)C1=O [Compound 866] ([NMeL]I[NMeA][Aze][NEtPhe(4-Me)][Sar][hPhe(3-Cl-4-CF3)]P[Ac5c][NMeI][NMeD]-NMe2; lactam N-11) | 0.0012 | ≤ 0.02
CC[C@H](C)[C@@H]1NC(=O)[C@H](CC(C)C)N(C)C(=O)C[C@@H](C(=O)N2CCOCC2)N(C)C(=O)[C@H](C2CCCC2)N(C)C(=O)C2(CCCC2)NC(=O)[C@@H]2CCCN2C(=O)[C@H](CCc2ccc(C(F)(F)F)c(F)c2)NC(=O)CN(C)C(=O)[C@H](C2CCCC2)N(C)C(=O)[C@@H]2CCN2C(=O)[C@H](C)N(C)C1=O [Compound 871] ([NMeL]I[NMeA][Aze][NMeGly(cPent)][Sar][hPhe(3-F,4-CF3)]P[Ac5c][NMeGly(cPent)][NMeD]-Morpholide; lactam N-11) | 0.00078 | ≤ 0.02
CC[C@H](C)[C@@H]1NC(=O)[C@H](CC(C)C)N(C)C(=O)C[C@@H](C(=O)N2CCCCC2)N(C)C(=O)[C@H](CC(C)C)N(C)C(=O)C2(CCCC2)NC(=O)[C@@H]2C[C@@H](O)CN2C(=O)[C@H](CCc2ccc(C(F)(F)F)c(F)c2)NC(=O)CN(C)C(=O)[C@H](CC2CCCCC2)N(C)C(=O)CN(C)C(=O)CN(C)C1=O [Compound 875, (3S,9S,18S,21S,25S,28S,34S,36R)-9-(cyclohexylmethyl)-3-[2-[3-fluoro-4-(trifluoromethyl)phenyl]ethyl]-36-hydroxy-21,28-diisobutyl-7,10,13,16,22,26,29-heptamethyl-18-[(1S)-1-methylpropyl]-25-(piperidine-1-carbonyl)spiro[1,4,7,10,13,16,19,22,26,29,32-undecazabicyclo[32.3.0]heptatriacontane-31,1′-cyclopentane]-2,5,8,11,14,17,20,23,27,30,33-undecone] ([NMeL]I[Sar][Sar][NMeCha][Sar][hPhe(3-F,4-CF3)][Hyp][Ac5c][NMeL][NMeD]-Piperidide; lactam N-11) | 0.0031 | > 0.5
